From BindingDB's records for doi:10.7270/Q27H1H0J (Srmlsc, 2008) come the findings set out here.

The target in this experiment is T1, M1 family aminopeptidase (Plasmodium falciparum (isolate FcB1 / Columbia), UniProt O96935).
T1 sequence (O96935 whole entry): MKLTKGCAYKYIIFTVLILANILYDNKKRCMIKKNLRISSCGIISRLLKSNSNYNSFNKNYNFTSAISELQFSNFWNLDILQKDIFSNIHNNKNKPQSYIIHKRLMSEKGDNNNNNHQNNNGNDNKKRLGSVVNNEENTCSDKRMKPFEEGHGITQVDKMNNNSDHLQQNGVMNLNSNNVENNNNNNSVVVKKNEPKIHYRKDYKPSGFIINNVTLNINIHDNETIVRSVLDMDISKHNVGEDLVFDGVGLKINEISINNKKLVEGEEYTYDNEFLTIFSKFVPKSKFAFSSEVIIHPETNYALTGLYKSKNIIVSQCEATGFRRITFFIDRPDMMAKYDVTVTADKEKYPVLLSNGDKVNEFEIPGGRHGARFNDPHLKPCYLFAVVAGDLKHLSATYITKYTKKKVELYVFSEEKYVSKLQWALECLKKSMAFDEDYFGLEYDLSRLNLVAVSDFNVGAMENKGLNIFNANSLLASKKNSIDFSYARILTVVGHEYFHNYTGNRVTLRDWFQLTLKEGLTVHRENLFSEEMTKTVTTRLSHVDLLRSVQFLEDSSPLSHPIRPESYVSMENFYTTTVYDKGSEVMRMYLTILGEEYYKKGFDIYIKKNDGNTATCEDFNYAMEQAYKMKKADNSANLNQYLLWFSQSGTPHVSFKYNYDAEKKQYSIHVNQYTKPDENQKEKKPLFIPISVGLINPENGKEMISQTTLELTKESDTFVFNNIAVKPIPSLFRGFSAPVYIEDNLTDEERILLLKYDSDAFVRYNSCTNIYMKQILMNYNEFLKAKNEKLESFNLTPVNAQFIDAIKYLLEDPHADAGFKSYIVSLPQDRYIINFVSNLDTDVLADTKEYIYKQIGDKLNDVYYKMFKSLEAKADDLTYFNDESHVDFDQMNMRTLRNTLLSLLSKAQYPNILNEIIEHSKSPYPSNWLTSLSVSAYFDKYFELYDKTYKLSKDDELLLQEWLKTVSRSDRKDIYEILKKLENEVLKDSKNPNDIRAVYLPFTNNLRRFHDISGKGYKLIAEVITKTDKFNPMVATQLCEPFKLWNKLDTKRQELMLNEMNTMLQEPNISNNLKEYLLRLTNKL
Kind of experiment: malaria alanyl aminopeptidase activity blockers – biochemical, fluorogenic H-Leu-NHMec substrate, 1536-well (AID 1445).

A word on the IC50: it is the concentration at which inhibition is half-maximal. The low end stands for inhibition by little substance, the high end for a need for much substance. With `CS(=O)(=O)Nc1nc2n(n1)C(c1ccccc1)CC(c1ccc(Br)cc1)=N2` (centres undefined), half-maximal inhibition (IC50) required 45.3 µM.
The result for `COc1ccc(-c2c/c(=N\CCC(=O)O)c3cc(C)ccc3o2)cc1` reads 38.9 µM; that for `Clc1ccc(CN=Nc2nnn[nH]2)cc1`, 92.8 µM.
The result for `CC(NNC(=O)c1cccc(Cl)c1)=C1C(=O)c2ccccc2C1=O` reads 40.8 µM.
The result for `O=C1NC(=O)C(N=Nc2cc([N+](=O)[O-])ccc2O)C(=O)N1` reads 11.4 µM.
The compound `Cc1ccc(-c2csc(-n3[nH]c(C)c(N=Nc4ccccc4O)c3=O)n2)cc1` returned an IC50 of 3.37 µM. This IC50 is about 3.4-fold lower than that of the compound before.
In turn, `N#C/C(=C\C1C=CC(=O)C([N+](=O)[O-])=C1)c1nc2ccccc2s1` (centres undefined) had a half-inhibitory concentration (IC50) of 33.9 µM.
The result for `CCOc1ccc(-n2c(O)c(CN=Nc3nnc(C)c(=O)[nH]3)c3ccccc3c2=O)cc1` reads 20.9 µM; that for `CCC(=O)N1N=C(C2C(=O)N(C)C(=O)N(C)C2=O)CC1c1ccccc1` (centres undefined), 41.9 µM.
With `Cc1[nH]n(-c2ccccc2)c(=O)c1C=Nc1ccccc1O` the figure was 12.8 µM; with `O=C(O)c1ccc(-c2ccc(CN=Nc3ccc([N+](=O)[O-])cc3)o2)cc1`, 43.1 µM.
The result for `CNC(=S)N/N=C1\C(=O)Nc2ccccc21` [1-methyl-3-[(2-oxoindol-3-yl)amino]thiourea] reads 47.9 µM; that for `Nc1nnc(CC(=O)N/N=C/C2C=C([N+](=O)[O-])C=C(Br)C2=O)s1` (centres undefined) [2-(5-azanyl-1,3,4-thiadiazol-2-yl)-N'-[(E)-(5-bromanyl-3-nitro-6-oxidanylidene-cyclohexa-2,4-dien-1-ylidene)methyl]ethanehydrazide], 30 µM.
Take `CN1C(=O)/C(=C/c2ccc(-c3ccccc3[N+](=O)[O-])o2)S/C1=N/c1ccc(Cl)c(C(=O)O)c1` [2-Chloro-5-[3-methyl-5-[1-[5-(2-nitro-phenyl)-furan-2-yl]-meth-(Z)-ylidene]-4-oxo-thiazolidin-(2Z)-ylideneamino]-benzoic acid]: the IC50 is 16.1 µM.
Turning to `CC(N=Nc1nc(C(=O)O)cs1)c1ccccc1` (centres undefined) [2-[2-(1-phenylethylidene)hydrazinyl]-4-thiazolecarboxylic acid], the IC50 worked out at 34.2 µM.
With `COc1ccc(CN=Nc2nc(O)c(CC(=O)O)s2)cc1OCc1ccc(Cl)cc1` [2-[2-[2-[[3-[(4-chlorophenyl)methoxy]-4-methoxy-phenyl]methylidene]hydrazinyl]-4-oxidanylidene-1,3-thiazol-5-yl]ethanoic acid] the figure was 66.7 µM.
The result for `CCOC(=O)C1C(=O)C(=Cc2ccc(OCC(=O)O)c(OCC)c2)SC1=Nc1ccccc1` (centres undefined) [2-[4-[(Z)-(5-anilino-4-ethoxycarbonyl-3-oxo-2-thiophenylidene)methyl]-2-ethoxyphenoxy]acetic acid] reads 60.2 µM; that for `CCOC(=O)C1C(=O)C(=Cc2ccc(OCC(=O)O)c(OC)c2)SC1=Nc1ccc(OC)cc1` (centres undefined) [2-[4-[(Z)-[4-ethoxycarbonyl-5-[(4-methoxyphenyl)amino]-3-oxidanylidene-thiophen-2-ylidene]methyl]-2-methoxy-phenoxy]ethanoic acid], 87.3 µM.
With `COc1ccc(-c2n[nH]c3c2C2(C(=O)N(CC(=O)O)c4ccccc42)C(C#N)C(=N)O3)cc1OC` (centres undefined) [2-[6-amino-5-cyano-3-(3,4-dimethoxyphenyl)-2'-oxo-1'-spiro[2H-pyrano[2,3-c]pyrazole-4,3'-indole]yl]acetic acid] the figure was 43.3 µM; with `N#CC(=NNc1ccc(Cl)cc1)C(=O)c1ccccc1` [2-[(4-chlorophenyl)hydrazono]-3-oxo-3-phenylpropanenitrile], 106 µM; with `CCOC(=O)C(C=NC(N)=Nc1nc2ccccc2o1)C(=O)OCC` [2-[[[amino-(1,3-benzoxazol-2-ylamino)methylidene]amino]methylidene]propanedioic acid diethyl ester], 79.2 µM.
As to `O=C(O)c1cc(-c2ccc(CN=Nc3ccc([N+](=O)[O-])cn3)o2)ccc1Cl` [2-chloro-5-[5-[[(5-nitropyridin-2-yl)hydrazinylidene]methyl]furan-2-yl]benzoic acid], the IC50 was found to be 12.7 µM.
The result for `COC1=CC(C=NNC(=O)C(Cc2c[nH]c3ccccc23)NC(=O)OCC(C)C)C=C([N+](=O)[O-])C1=O` (centres undefined) [2-methylpropyl N-[3-(1H-indol-3-yl)-1-[2-[(E)-(3-methoxy-5-nitro-4-oxidanylidene-cyclohexa-2,5-dien-1-ylidene)methyl]hydrazinyl]-1-oxidanylidene-propan-2-yl]carbamate] reads 16.7 µM; that for `O=C1Nc2ccccc2SC1C=NCc1ccccc1Cl` (centres undefined) [2-{[(2-chlorobenzyl)amino]methylene}-2H-1,4-benzothiazin-3(4H)-one], 5.63 µM.
The result for `O=C1OC(C(C=Nc2cc(Cl)ccc2O)[N+](=O)[O-])c2ccccc21` (centres undefined) [3-[(E)-2-[(5-chloranyl-2-oxidanyl-phenyl)amino]-1-nitro-ethenyl]-3H-2-benzofuran-1-one] reads 48.8 µM; that for `COc1cc(C=Nn2c(O)csc2=S)cc(Br)c1O` [3-[[(Z)-(3-bromo-5-methoxy-4-oxo-1-cyclohexa-2,5-dienylidene)methyl]amino]-2-sulfanylidene-4-thiazolidinone], 107 µM; that for `C=c1[nH]n(-c2nnc(C)c(=O)[nH]2)c(=O)c1=Cc1ccc(N(CC)CC)cc1` [3-{4-[1-(4-Diethylamino-phenyl)-meth-(Z)-ylidene]-3-methyl-5-oxo-4,5-dihydro-pyrazol-1-yl}-6-methyl-4H -[1,2,4]triazin-5-one], 42.6 µM.
With `COc1ccc(OC)c(C2C(C(=O)Nc3cccnc3)=C(C)N=C3CCCC(=O)C32)c1` (centres undefined) [4-(2,5-dimethoxyphenyl)-2-methyl-5-oxo-N-3-pyridinyl-1,4,5,6,7,8-hexahydro-3-quinolinecarboxamide] the figure was 52.9 µM.
Take `CC(=O)N1N=C(C2C(=O)N(C)C(=O)N(C)C2=O)CC1c1ccccc1` (centres undefined) [5-(1-acetyl-5-phenylpyrazolidin-3-ylidene)-1,3-dimethyl-1,3-diazinane-2,4,6-trione]: the IC50 is 16 µM. Compared with the last compound, the IC50 is about 3.3-fold lower.
With `NC(=NNC=c1ccc(=C2C=CC(=O)C(C(=O)O)=C2)o1)N[N+](=O)[O-]` [5-(5-{2-[amino(nitroimino)methyl]carbonohydrazonoyl}-2-furyl)-2-hydroxybenzoic acid] the figure was 10.2 µM.
With `O=C1NC(=S)NC(=O)C1N=Nc1ccc(-c2ccccc2)cc1[N+](=O)[O-]` [5-[(2-nitro-4-phenylphenyl)hydrazinylidene]-2-sulfanylidene-1,3-diazinane-4,6-dione] the figure was 10.5 µM.
With `O=C1NC(=S)NC(=O)C1N=Nc1cc2c(cc1[N+](=O)[O-])OCO2` [5-[(6-nitro-1,3-benzodioxol-5-yl)hydrazinylidene]-2-sulfanylidene-1,3-diazinane-4,6-dione] the figure was 26.9 µM; with `O=C1N=c2ccc(Br)cc2=C1NNc1nnn[nH]1` [5-bromanyl-3-[2-(2H-1,2,3,4-tetrazol-5-yl)hydrazinyl]indol-2-one], 26.5 µM; with `CCOc1cc(C2C3=C(CCCC3=O)N=C3CCCC(=O)C32)cc(Cl)c1O` (centres undefined) [9-(3-Chloro-5-ethoxy-4-hydroxy-phenyl)-3,4,6,7,9,10-hexahydro-2H,5H-acridine-1,8-dione], 23.9 µM.
On to `CCOC(=O)C1C(=O)C(=Cc2ccc(OCC(=O)O)c(OCC)c2)SC1=Nc1ccc(C)cc1` (centres undefined) [(2-ethoxy-4-{[4-(ethoxycarbonyl)-5-[(4-methylphenyl)amino]-3-oxo-2(3H)-thienylidene]methyl}phenoxy)acetic acid], for which the IC50 is 48.6 µM.
The result for `CC(=O)Nc1ccc(S(=O)(=O)Oc2cccc(CN=Nc3nc(O)c(CC(=O)O)s3)c2)cc1` [(2-{[3-({[4-(acetylamino)phenyl]sulfonyl}oxy)benzylidene]hydrazono}-4-oxo-1,3-thiazolidin-5-yl)acetic acid] reads 52.8 µM; that for `COC1=CC(/C=C(\C#N)c2nc3ccc(C)cc3[nH]2)C=C([N+](=O)[O-])C1=O` (centres undefined) [(2Z,3E)-3-(3-methoxy-5-nitro-4-oxocyclohexa-2,5-dien-1-ylidene)-2-(5-methyl-1,3-dihydrobenzimidazol-2-ylidene)propanenitrile], 16.2 µM; that for `CCc1ccc2oc(-c3ccc(OC)cc3)c/c(=N\c3cccc(C(=O)O)c3)c2c1` [(3-carboxyphenyl)-[6-ethyl-2-(4-methoxyphenyl)-1-benzopyran-4-ylidene]ammonium;tetrafluoroborate], 11.9 µM.
With `CN1CCN(CC2=c3oc(=O)c(=C4C=CCC=N4)cc3C=CC2=O)CC1` [(3E)-8-[(4-methylpiperazin-1-yl)methyl]-3-(1H-pyridin-2-ylidene)chromene-2,7-dione] the figure was 52.2 µM.
